Counter-ions that a name gives are not always drawn.
Legend:
[1] = in vitro elution of lidocaine from TECOFLEX EG-93A polyurethane implants; format: physicochemical; conditions: TECOFLEX EG-93A tubing, about 180 mg pure lidocaine without excipients, 300 mL 0.9% saline at 37° C, daily exchanges, up to 8 days; for release of drug from the implant (in vitro elution): HPLC
Procedure: (§1) The follow general procedure was followed for the manufacture of API-containing implants.
(§2) Sterilization was accomplished by gamma irradiation of the implants.
A total of about 180 mg pure (100%) lidocaine were loaded into the implant without any excipients (without any sorption enhancer or lubricant).

[2] = in vitro elution of raloxifene from TECOFLEX EG-80A polyurethane implants; format: physicochemical; conditions: TECOFLEX EG-80A tubing, 88% API, 10% croscarmellose sodium, 2% stearic acid, about 250 mg raloxifene, 800 mL 0.9% saline at 37° C, weekly exchanges, HPLC, up to 20 weeks
Procedure: as §1, §2
The drug blend was 88% API, 10% sorption enhancer, and 2% lubricant. […] A total of about 250 mg raloxifene were loaded into the implant with 10% croscarmellose sodium and 2% stearic acid.

[3] = oral dosage form, target oral daily dose about 60 mg; cited from earlier work

Structure (SMILES)	release of drug from the implant (in vitro elution) [1]	release of drug from the implant (in vitro elution) [2]	also measured
CCN(CC)CC(=O)Nc1c(C)cccc1C [lidocaine free base]	readily released	–	in vitro elution rate from the implant [1]: more than 10 mg/day
CCN(CC)CC(=O)Nc1c(C)cccc1C [lidocaine hydrochloride]	No drug was released	–	release of drug from the implant (in vitro elution) ([1]; listed as lidocaine HCl): no drug was released
O=C(c1ccc(OCCN2CCCCC2)cc1)c1c(-c2ccc(O)cc2)sc2cc(O)ccc12 [raloxifene free base, [6-hydroxy-2-(4-hydroxyphenyl)-benzothiophen-3-yl]-[4-[2-(1-piperidyl)ethoxy]phenyl]-methanone]	–	readily released	–
O=C(c1ccc(OCCN2CCCCC2)cc1)c1c(-c2ccc(O)cc2)sc2cc(O)ccc12 [raloxifene hydrochloride]	–	No drug was released	oral bioavailability [3]: ~2%; release of drug from the implant (in vitro elution) ([2]; listed as raloxifene HCI): no drug was released

— patent US20150297509A1, “IMPLANTABLE DRUG DELIVERY COMPOSITIONS AND METHODS OF TREATMENT THEREOF” (BRAEBURN PHARMACEUTICALS BVBA SPRL, priority 2012, published 2015)
